How the values were obtained:
[1] = system: cucumber plants (sensitive variety, Anico); experiment: Pot study: foliar Fe content of cucumber plants in basic, calcareous soil; assay type: in vivo; conditions: Fe dose 4 ppm; after 30 days of cultivation; soil pH=8.04, % CO3=23%
Excerpt: Study of the effect of applying a heteromolecular humate-iron citrate complex in cucumber plants (sensitive variety, Anico) cultivated in a basic (pH=8.04), calcareous (% CO3=23%) soil. In this study, performed in pots, the effect of the synthesis chelate of reference in correcting iron chlorosis (Fe-EDDHA orto-orto isomer) was compared to the effect of the heteromolecular humate-Fe citrate complex prepared according to Example 1; in relation to these compounds' capacity to increase iron absorption in cucumber (v anico) plants sensitive to iron chlorosis. The results obtained after 30 days of cultivation are shown in the following figure, where the Fe-EDDHA chelate orto-orto isomer is called (o,o) and the heteromolecular complex is called (H-Cit). The Fe doses applied were: 4 ppm (o, o) and 4 and 8 ppm (H-Cit).

[2] = system: nectarine trees; experiment: Field study: iron chlorosis and crop of nectarine trees in basic, calcareous soil; assay type: in vivo; conditions: dose d1 (5 g of Fe per tree)
Experimental: In this study, the effect of the heteromolecular humate-Fe citrate complex on nectarine trees cultivated in a basic, calcareous soil was analysed. This effect was compared to the effect of an Fe EDDHA chelate of reference. This test was performed in a field with a high chlorotic power, wherein a clear response to the standard Fe chelate (Fe EDDHA) is not observed.

Compound	increase in foliar Fe content [1]	Commercial production increase with respect to control [2]	Crop 21 days after treatment [2] [kg/tree]	Green colour (1-10) 62 days post-treatment ([2]; leaves' green colour)	Green colour (1-10) 85 days post-treatment ([2]; leaves' green colour)
O=C([O-])C(NCCNC(C(=O)[O-])c1ccccc1[O-])c1ccccc1[O-].[Fe+3] (single isomer, unassigned) [(o,o), Fe-EDDHA orto-orto isomer]	approximately 50%				
Fe EDDHA [FeEDDHA]		+57.9	5.8	5.3	5.9
